Laboratory results reported in patent US20260108549A1, “MACROLIDE COMPOUND AND PREPARATION METHOD AND APPLICATION THEREOF” (INSTITUTE OF FEED RESEARCH, CHINESE ACADEMY OF AGRICULTURAL …, priority 2023, published 2026).
In brackets after ≈: the same amount, converted by molar mass.

Key:
[1] = system: Streptococcus pneumoniae ATCC 49169; test: Antibacterial activity, broth microdilution MIC; assay type: cell-based; conditions: for MIC: Streptococcus pneumoniae, ATCC49169, broth microdilution, 37° C., 24 hours, working range 0.098-50 μg/mL (Gram-positive); for antibacterial effect compared with tylosin against Streptococcus pneumoniae ATCC 49169: in vitro, comparison in words with positive control tylosin
Experimental: (§1) Test Example 1 Determination of the antibacterial activity of the compounds of the present invention The antibacterial activity of the compounds obtained in Examples 1-4 of the present invention were determined by using the broth microdilution method with tylosin as a positive control. A broth culture medium was added into a 96-well plate, a prepared compound solution was diluted two-fold serial dilution, and then inoculated with an appropriate amount of bacterial solution. After incubation for 24 hours, the minimum inhibitory concentration of the compound was observed. The culture medium used in the experiment was CAMHB broth, CAMHB+5% defibrillated sheep blood broth. The preserved bacteria strain was inoculated into a serum-supplemented medium and cultured at 37° C. for 16-18 hours. An appropriate amount of bacteria after the completion of subculture and saline were placed into a turbidimetric tube and calibrated to the McFarland standard with a McFarland turbidimeter. The bacterial suspension was diluted 10 times with saline to prepare test bacterial solutions of certain concentrations (5×10^5 to 5×10^6 cfu/mL) for later use. Tylosin and the compounds obtained in the examples were dissolved in methanol to the desired concentration of each compound (1.0 mg/mL), stored in sterilized brown vials, stoppered, and sealed for later use. The working concentration range against Gram-negative bacteria was 0.25 μg/mL to 128 μg/mL; and the working concentration range against Gram-positive bacteria was 0.098 μg/mL to 50 μg/mL. The 96-well plate micro double dilution method was used. […] Finally, the prepared bacterial solution (of a concentration of 5×10^5 to 5×10^6 cfu/mL) was added into the first well to the eleventh well, and the twelfth well was not added with the bacterial solution to serve as a blank control. The 96-well plate was placed in a 37° C. incubator, cultured in a static state for 24 hours to observe the bacterial growth in each well. The solution in the well that inhibited bacterial growth was transparent, and the solution in the well that could not inhibit bacterial growth was turbid. The concentration in the well with a transparent solution was selected to be the minimum inhibitory concentration (MIC) of the sample.

[2] = system: Escherichia coli ATCC 8099; test: Antibacterial activity, broth microdilution MIC; assay type: cell-based; conditions: for MIC: Escherichia coli, ATCC8099, broth microdilution, 37° C., 24 hours, working range 0.25-128 μg/mL (Gram-negative); for antibacterial effect compared with tylosin against Escherichia coli 8099: in vitro, comparison in words with positive control tylosin
Experimental: as §1

MIC [1] | MIC [2] | Compound | antibacterial effect compared with tylosin against Streptococcus pneumoniae ATCC 49169 [1] | antibacterial effect compared with tylosin against Escherichia coli 8099 [2]
0.391 µg/mL (≈ 0.401 µM) | 128 µg/mL (≈ 131 µM) | CC[C@H]1OC(=O)C[C@@H](O)[C@H](C)[C@@H](O[C@@H]2O[C@H](C)[C@@H](O[C@H]3C[C@@](C)(O)[C@@H](O)[C@H](C)O3)[C@H](N(C)C)[C@H]2O)[C@@H](CCNCCCO)C[C@@H](C)C(=O)/C=C/C(C)=C/[C@@H]1CO[C@@H]1O[C@H](C)[C@@H](O)[C@@H](OC)[C@H]1OC [Ia, 20-(3-hydroxypropylamino) tylosin] | slightly better antibacterial effect than tylosin | comparable antibacterial effect to tylosin
0.781 µg/mL (≈ 0.777 µM) | 128 µg/mL (≈ 127 µM) | CC[C@H]1OC(=O)C[C@@H](O)[C@H](C)[C@@H](O[C@@H]2O[C@H](C)[C@@H](O[C@H]3C[C@@](C)(O)[C@@H](O)[C@H](C)O3)[C@H](N(C)C)[C@H]2O)[C@@H](CCN(CCO)CCO)C[C@@H](C)C(=O)/C=C/C(C)=C/[C@@H]1CO[C@@H]1O[C@H](C)[C@@H](O)[C@@H](OC)[C@H]1OC [Ib, 20-(bis(2-hydroxyethylamino)) tylosin] | – | –
0.195 µg/mL (≈ 0.195 µM) | 64 µg/mL (≈ 63.9 µM) | CC[C@H]1OC(=O)C[C@@H](O)[C@H](C)[C@@H](O[C@@H]2O[C@H](C)[C@@H](O[C@H]3C[C@@](C)(O)[C@@H](O)[C@H](C)O3)[C@H](N(C)C)[C@H]2O)[C@@H](CCN2CCC[C@@H]2CO)C[C@@H](C)C(=O)/C=C/C(C)=C/[C@@H]1CO[C@@H]1O[C@H](C)[C@@H](O)[C@@H](OC)[C@H]1OC [Ic, 20-((R)-2-hydroxymethyltetrahydropyrrolyl) tylosin] | superior antibacterial effect to tylosin | superior antibacterial effect to tylosin
0.781 µg/mL (≈ 0.78 µM) | 128 µg/mL (≈ 128 µM) | CC[C@H]1OC(=O)C[C@@H](O)[C@H](C)[C@@H](O[C@@H]2O[C@H](C)[C@@H](O[C@H]3C[C@@](C)(O)[C@@H](O)[C@H](C)O3)[C@H](N(C)C)[C@H]2O)[C@@H](CCN2CCC[C@H]2CO)C[C@@H](C)C(=O)/C=C/C(C)=C/[C@@H]1CO[C@@H]1O[C@H](C)[C@@H](O)[C@@H](OC)[C@H]1OC [Id, 20-((S)-2-hydroxymethyltetrahydropyrrolyl) tylosin] | – | –
0.781 µg/mL (≈ 0.853 µM) | 128 µg/mL (≈ 140 µM) | CC[C@H]1OC(=O)C[C@@H](O)[C@H](C)[C@@H](O[C@@H]2O[C@H](C)[C@@H](O[C@H]3C[C@@](C)(O)[C@@H](O)[C@H](C)O3)[C@H](N(C)C)[C@H]2O)[C@@H](CC=O)C[C@@H](C)C(=O)/C=C/C(C)=C/[C@@H]1CO[C@@H]1O[C@H](C)[C@@H](O)[C@@H](OC)[C@H]1OC [Tylosin, reference compound] | – | –
